Experimental data taken from US10000473B2, “Indazole derivatives useful as glucagon receptor antagonists” (Janssen Pharmaceutica NV, priority 2016, dated 2018).

Assays:
[1] = tested on: GCG-mediated increases in blood glucose; experiment: Glucagon challenge in vivo assay measuring blood glucose (normal dog glucagon challenge test); conditions: fasted male beagle dogs, glucagon 5 μg/kg intramuscular 90 min after dosing
Method: Glucagon Challenge In Vivo Assay Measuring Blood Glucose
The efficacy of a glucagon receptor antagonist was evaluated using a normal dog glucagon challenge test. Male beagle dogs were overnight fasted prior to the study. Test compound (at 3 mg/kg and 10 mg/kg for Compound #196 and at 10 mg/kg for Compounds #180, #248 and #253) or vehicle (0.5% hydroxypropyl methylcellulose) was dosed via oral gavage. Ninety minutes later, the dogs (1.5 years old, ˜9 Kg) were submitted to a glucagon challenge test by a single intramuscular injection of glucagon (Glucagon, rDNA origin, Eli Lilly, Indianapolis, Ind.) at dose of 5 μg/kg. Blood glucose levels were determined at times −10 min, 0 min (on challenge), 10 min, 20 min, 30 min, and 60 min after glucagon injection.

human GCGR = molecular target: T1, human GCGR (Homo sapiens, UniProt P47871); experiment: Cellular functional assay, cAMP readout (glucagon-stimulated cAMP, LANCE TR-FRET); format: cell-based; conditions: HEK293 cells stably expressing full-length human GCGR; glucagon 100 pM; IC50 converted to Ki; read-out: Inhibition of cAMP Ki
T1 construct: expressed in transfected cells; host or cells: HEK293 (hGluc-1HEK), pcDNA3.1, G418 selection
T1 sequence (P47871 26-477): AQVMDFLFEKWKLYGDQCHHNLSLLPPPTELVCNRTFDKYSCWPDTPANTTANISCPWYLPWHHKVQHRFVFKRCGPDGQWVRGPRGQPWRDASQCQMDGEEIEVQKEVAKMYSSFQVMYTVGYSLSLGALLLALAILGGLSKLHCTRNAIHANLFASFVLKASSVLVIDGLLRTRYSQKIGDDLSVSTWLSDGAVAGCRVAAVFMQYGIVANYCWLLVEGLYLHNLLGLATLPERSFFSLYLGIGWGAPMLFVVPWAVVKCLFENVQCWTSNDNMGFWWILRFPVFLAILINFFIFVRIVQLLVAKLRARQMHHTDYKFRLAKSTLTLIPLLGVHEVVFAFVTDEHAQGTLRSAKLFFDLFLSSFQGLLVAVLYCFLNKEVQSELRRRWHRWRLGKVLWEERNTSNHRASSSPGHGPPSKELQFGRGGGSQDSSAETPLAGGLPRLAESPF

SMILES	inhibition of GCG-mediated increases in blood glucose vs vehicle ([1]; 3 mg/kg oral gavage)	inhibition of GCG-mediated increases in blood glucose vs vehicle ([1]; 10 mg/kg oral gavage)	Ki (human GCGR)
Cc1cc2c(cnn2[C@@H](CC(C)C)c2ccc(C(=O)NCCC(=O)O)cc2)cc1-c1ccc(C(F)(F)F)cc1Cl [Compound #196, 3-[[4-[(1S)-1-[5-[2-Chloro-4-(trifluoromethyl)phenyl]-6-methyl-indazol-1-yl]-3-methyl-butyl]benzoyl]amino]propanoic acid]	5.9%	23.9%	32 nM
Cc1cc(C(F)(F)F)ccc1-c1cc2cn([C@@H](CC(C)C)c3ccc(C(=O)NCCC(=O)O)cc3)nc2cc1C [Compound #248, 3-[[4-[(1 S)-3-Methyl-1-[6-methyl-5-[2-methyl-4-(trifluoromethyl)phenyl]indazol-2-yl]butyl]benzoyl]amino]propanoic acid]		15%	25 nM
Cc1cc(C(F)(F)F)ccc1-c1cc2cnn([C@@H](CC(C)C)c3ccc(C(=O)NCCC(=O)O)cc3)c2cc1C [Compound #253, 3-[[4-[(1S)-3-Methyl-1-[6-methyl-5-[2-methyl-4-(trifluoromethyl)phenyl]indazol-1-yl]butyl]benzoyl]amino]propanoic acid]		17.1%	14 nM
